# In patent publication US11530200B2, “Compounds” (Inflazome Limited, priority 2018, dated 2022):
# Counter-ions that a name gives are not always drawn.
# What was measured:
# [1] = PK protocol, intravenous administration in rats; type: in vivo; settings: rat, plasma, male Sprague Dawley rats, 1 mg/kg; for Vd: read-out: Vdss
# Experimental: Pharmacokinetic parameters were determined in male Sprague Dawley rats (Vital River Laboratory Animal Technology Co Ltd, Beijing, China, 7-9 weeks old). Animals were group housed during the study and maintained under a 12 h light/dark cycle. For intravenous administration, compounds were formulated as a solution in DMSO:PBS [10:90] in 2 mL/kg dosing volume and administered via tail vein. Serial blood samples (about 200 μL) were taken from each animal at each of 8 time-points post dose (0.083, 0.25, 0.5, 1, 2, 4, 8 and 24 h). Samples were held on ice for no longer than 30 minutes before centrifugation (5,696 rpm (3,000 g) for 15 minutes) for plasma generation. Plasma was frozen on dry ice prior to bioanalysis. PK parameters were generated from LC-MS/MS data using Phoenix WinNonlin 6.3 software.
# NLRP3 = NLRP3 (Homo sapiens (Human), UniProt Q96P20); assay: THP-1 cells pyroptosis assay (LPS priming, nigericin, resazurin readout); type: cell-based; settings: 1.0 μg/ml LPS, nigericin 5 μM, NLRP3 inhibitory activity
# Chain of NLRP3 (Q96P20 whole entry): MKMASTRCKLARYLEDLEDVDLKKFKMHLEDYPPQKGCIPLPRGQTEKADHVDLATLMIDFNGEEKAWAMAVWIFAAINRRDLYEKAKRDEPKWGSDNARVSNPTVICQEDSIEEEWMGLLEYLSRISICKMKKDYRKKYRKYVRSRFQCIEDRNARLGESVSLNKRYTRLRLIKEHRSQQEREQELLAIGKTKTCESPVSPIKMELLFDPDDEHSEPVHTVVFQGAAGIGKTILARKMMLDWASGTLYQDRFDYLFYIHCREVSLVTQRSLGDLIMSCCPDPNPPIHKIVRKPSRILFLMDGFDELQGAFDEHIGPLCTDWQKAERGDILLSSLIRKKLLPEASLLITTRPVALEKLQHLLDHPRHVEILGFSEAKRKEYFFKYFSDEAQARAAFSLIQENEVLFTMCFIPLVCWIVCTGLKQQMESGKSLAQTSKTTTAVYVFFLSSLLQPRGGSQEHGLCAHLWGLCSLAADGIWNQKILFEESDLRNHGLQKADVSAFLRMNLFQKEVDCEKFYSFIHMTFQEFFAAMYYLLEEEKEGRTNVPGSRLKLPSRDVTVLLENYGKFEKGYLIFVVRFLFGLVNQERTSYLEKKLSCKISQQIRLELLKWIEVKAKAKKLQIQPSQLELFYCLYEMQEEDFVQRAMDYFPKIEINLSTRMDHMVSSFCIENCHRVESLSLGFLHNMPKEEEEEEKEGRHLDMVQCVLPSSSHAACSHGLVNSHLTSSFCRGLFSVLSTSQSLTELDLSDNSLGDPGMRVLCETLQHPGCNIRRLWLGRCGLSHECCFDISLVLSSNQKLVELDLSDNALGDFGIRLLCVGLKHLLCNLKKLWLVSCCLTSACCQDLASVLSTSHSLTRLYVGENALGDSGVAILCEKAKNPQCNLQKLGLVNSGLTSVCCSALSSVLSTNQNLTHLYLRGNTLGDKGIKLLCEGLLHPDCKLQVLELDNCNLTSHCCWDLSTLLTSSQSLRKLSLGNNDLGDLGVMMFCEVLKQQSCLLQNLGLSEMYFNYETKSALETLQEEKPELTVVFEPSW
# Experimental: THP-1 cells (ATCC #TIB-202) were grown in RPMI containing L-glutamine (Gibco #11835) supplemented with 1 mM sodium pyruvate (Sigma #S8636) and penicillin (100 units/ml)/streptomycin (0.1 mg/ml) (Sigma #P4333) in 10% Fetal Bovine Serum (FBS) (Sigma #F0804). The cells were routinely passaged and grown to confluency (10^6 cells/ml). On the day of the experiment, THP-1 cells were harvested and resuspended into RPMI medium (without FBS). The cells were then counted and viability (>90%) checked by Trypan blue (Sigma #T8154). Appropriate dilutions were made to give a concentration of 625,000 cells/ml. To this diluted cell solution was added LPS (Sigma #L4524) to give a 1 μg/ml Final Assay Concentration (FAC). 40 μl of the final preparation was aliquoted into each well of a 96-well plate. The plate thus prepared was used for compound screening. The following method step-by-step assay was followed for compound screening. • 1. Seed THP-1 cells (25,000 cells/well) containing 1.0 μg/ml LPS in 40 μl of RPMI medium (without FBS) in 96-well, black walled, clear bottom cell culture plates coated with poly-D-lysine (VWR #734-0317) • 2. Add […] compound (8 points half-log dilution, with […] top dose) or vehicle (DMSO 0.1% FAC) to the appropriate wells • 3. Incubate for 3 hrs at 37° C., 5% CO2 • 4. Add 5 μl nigericin (Sigma #N7143) (FAC 5 μM) to all wells • 5. Incubate for 1 hr at 37° C., 5% CO2 • 6. At the end of the incubation period, spin plates at 300×g for 3 mins and remove supernatant • 7. Then add 50 μl of resazurin (Sigma #R7017) (FAC 100 μM resazurin in RPMI medium without FBS) and incubate plates for a further 1-2 hrs at 37° C. and 5% CO2 • 8. Plates were read in an Envision reader at Ex 560 nm and Em 590 nm • 9. IC50 data is fitted to a non-linear regression equation (log inhibitor vs response-variable slope 4-parameters) The results of the pyroptosis assay are summarised in Table 1 below as THP IC50.
Compound,AUC [1],clearance [1],half-life [1],Vd [1],IC50 (NLRP3)
"CC(C)c1cc(F)cc(-c2cccnc2)c1CC(=O)NS(=O)(=O)c1cnn(C2CC2)c1 [Example 11, N-((1-Cyclopropyl-1H-pyrazol-4-yl)sulfonyl)-2-(4-fluoro-2-isopropyl-6-(pyridin-3-yl)phenyl)acetamide]",1560 ng·h/mL,10.7 mL/min/kg,4.4 h,0.95 L/kg,1000 to 5000 nM
"COc1cc(-c2cc(F)cc(C(C)C)c2CC(=O)NS(=O)(=O)c2cnn(C3CC3)c2)ccn1 [Example 18, N-((1-Cyclopropyl-1H-pyrazol-4-yl)sulfonyl)-2-(4-fluoro-2-isopropyl-6-(2-methoxypyridin-4-yl)phenyl)acetamide, potassium salt]",1550 ng·h/mL,15.4 mL/min/kg,16.4 h,6.52 L/kg,≤ 1000 nM
"COc1cc(-c2cc(F)cc(C(C)C)c2CC(=O)NS(=O)(=O)c2ncn(C3CC3)n2)ccn1 [Example 21, N-((1-Cyclopropyl-1H-1,2,4-triazol-3-yl)sulfonyl)-2-(4-fluoro-2-isopropyl-6-(2-methoxypyridin-4-yl)phenyl)acetamide]",827 ng·h/mL,20.2 mL/min/kg,9.3 h,6.15 L/kg,1000 to 5000 nM
"CC(C)c1cc(F)cc(C(C)C)c1CC(=O)NS(=O)(=O)c1cnn(C2CC2)c1 [Example 24, N-((1-Cyclopropyl-1H-pyrazol-4-yl)sulfonyl)-2-(4-fluoro-2,6-diisopropylphenyl)acetamide]",1270 ng·h/mL,13.1 mL/min/kg,2.6 h,1.94 L/kg,1000 to 5000 nM
